Measurements: patent US20220259235A1, “EGFR Inhibitor, Composition, and Preparation Method Therefor” (BETTA PHARMACEUTICALS CO., LTD, priority 2019, published 2022)

Tests used:
[1] = Liver microsomal clearance test, mice; type: in vitro ADME; settings: Mice liver microsomes, 0.5 mg/mL, NADPH
Experimental: (§1) Test 3 Liver Microsomal Clearance Test
(§2) 1. Prepare 0.5 mg/mL liver microsome diluent containing K-butter and MgCl2:
(§3) 2.1 Take 356 μL of the liver microsome diluent prepared above and add it to the preset wells of the incubation plate, the number of multiple wells n=1, mark it as the incubation plate.
(§4) 2.2 Take 4 μL of the positive control compound Verapamil (50 μM) and the working solution of the test compound (200 μM) into the above incubation plate containing 356 μL of liver microsome diluent, and mix well (The dilution solvent from the stock solution to the working solution is a mixed solvent of acetonitrile: methanol: water=1:1:2, and the final concentration of DMSO is ≤0.5%),
(§5) 2.3 Place the incubation plate in a 37° C. thermostatic oscillator (at shaking speed of 100 rpm) for pre-incubation with 10 min.
(§6) 2.4 Add 40 μL of 10 mM NADPH (add 40 μL of K-buffer to the wells without NADPH) to each reaction well to start the reaction and start timing.
(§7) 3. Sample collection and treatment:
(§8) 3.1 After adding NADPH to start the reaction, immediately take out 50 μL of the sample and add it to the precipitation plate pre-added with 400 μL of stop solution, and shake on an oscillator at 600 rpm for 5 min at room temperature as a 0 min sample.
(§9) 3.2 At the predetermined time points of 5 min, 15 min and 45 min, take out 50 μL of sample from the incubation plate and add it to the precipitation plate. The subsequent steps were the same as the treatment of 0 min sample. 3.3 After balancing, centrifuge above precipitation plate at 3200 rpm for 10 min at 4° C.
(§10) 3.4 Take 50 μL of the supernatant after centrifugation and add it to pre-added 20% acetonitrile water at appropriate proportion, shake on an oscillator at 600 rpm for 2 min at room temperature, mix well, and put it into the LC-MS/MS sampler for sample injection.
(§11) Analysis of Experimental Data
1. […]

[2] = Liver microsomal clearance test, human; type: in vitro ADME; settings: Human liver microsomes, 0.5 mg/mL, NADPH
Experimental: as §1, §2, §3, §4, §5, §6, §7, §8, §9, §10, §11
1. […]

hERG protein = target: T1, hERG protein (Homo sapiens, UniProt Q12809); experiment: hERG IC50 test (tracer/membranes fluorescence polarization); type: binding; settings: hERG membranes and tracer, read-out: IC50 results of hERG protein to compound
T1 construct: purchased
T1 sequence (Q12809 whole entry): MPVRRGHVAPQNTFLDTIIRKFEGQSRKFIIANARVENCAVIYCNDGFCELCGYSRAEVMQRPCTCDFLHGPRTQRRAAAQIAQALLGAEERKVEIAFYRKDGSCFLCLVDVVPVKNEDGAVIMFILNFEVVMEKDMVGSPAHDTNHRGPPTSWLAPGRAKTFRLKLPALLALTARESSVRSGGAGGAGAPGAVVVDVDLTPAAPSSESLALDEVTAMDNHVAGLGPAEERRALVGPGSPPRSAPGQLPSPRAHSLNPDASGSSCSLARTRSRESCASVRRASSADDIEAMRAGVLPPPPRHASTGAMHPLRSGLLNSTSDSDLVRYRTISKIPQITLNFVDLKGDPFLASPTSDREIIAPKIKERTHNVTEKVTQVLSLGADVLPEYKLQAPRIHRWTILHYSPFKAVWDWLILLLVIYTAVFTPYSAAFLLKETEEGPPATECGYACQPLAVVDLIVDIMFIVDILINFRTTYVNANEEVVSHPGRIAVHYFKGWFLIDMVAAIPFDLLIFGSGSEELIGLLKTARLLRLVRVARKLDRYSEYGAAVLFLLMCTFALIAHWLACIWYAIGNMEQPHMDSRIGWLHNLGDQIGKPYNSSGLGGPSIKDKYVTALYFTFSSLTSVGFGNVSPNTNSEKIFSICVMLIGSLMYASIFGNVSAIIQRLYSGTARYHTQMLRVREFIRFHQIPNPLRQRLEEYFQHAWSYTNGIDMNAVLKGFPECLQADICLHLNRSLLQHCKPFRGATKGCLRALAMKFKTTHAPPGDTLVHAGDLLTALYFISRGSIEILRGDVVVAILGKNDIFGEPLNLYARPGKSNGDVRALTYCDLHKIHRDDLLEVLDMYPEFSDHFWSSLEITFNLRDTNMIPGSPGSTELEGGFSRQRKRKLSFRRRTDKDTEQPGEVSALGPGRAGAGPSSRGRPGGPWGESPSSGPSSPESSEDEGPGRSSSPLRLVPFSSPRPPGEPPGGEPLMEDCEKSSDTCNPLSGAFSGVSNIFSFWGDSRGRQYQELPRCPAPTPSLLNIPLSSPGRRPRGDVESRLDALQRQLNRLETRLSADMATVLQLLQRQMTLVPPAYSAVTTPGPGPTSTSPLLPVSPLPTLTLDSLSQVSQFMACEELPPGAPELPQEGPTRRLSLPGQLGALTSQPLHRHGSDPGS
Experimental: 1. Thaw hERG kits (Tracer, E-4031 and Membranes) at room temperature;
2. Add 10 μL of positive compound E-4031 and 10 μL of test compound (10 mM) to 384 well plate (Corning, Art. No. 3658);
3. E-4031 is sequentially 5-fold diluted by pure water (10 concentration points in total), and the test compound is sequentially 5-fold diluted by DMSO (10 concentration points in total).
4. Take 1 μL of all gradient concentrations and add them in parallel to the wells containing 24 μL Assay buffer, and dilute 25 times (take 3 μL of the maximum concentration of E-4031 and add it to 72 μL Assay buffer).
5. Add 10 μL Membranes to another black 384-well plate (Coming, Art.4511).
6. Take 5 μL of 25-fold diluted working solution of positive and test compounds, and add it to above-mentioned plate with 10 μL Membranes, 2 copies at each concentration.
7. Negative control: Add 5 μL Assay buffer to the well with 10 μL Membranes, 8 copies in parallel;
8. Positive control: Add 5 μL E-4031 (120 μM) to the well with 10 μL Membranes, 8 copies in parallel;
9. […]
10. Before measuring the fluorescence polarization, cover the analysis plate to protect the reagents from light and evaporation, and incubate at room temperature (20-25° C.) for 2 hours.
11. Read fluorescence polarization in PerkinElmer EnVision® Multilabel after incubation; […]

Ba/F3-Δ19del/T790M/C797S = Ba/F3-Δ19del/T790M/C797S (Homo sapiens, UniProt P00533, T790M/C797S, cells depend on it, form not given); experiment: Ba/F3-Δ19del/T790M/C797S cell proliferation assay (CellTiter Glo, 72 h); type: cell-based; settings: CTG, numeric values, read-out: BaF3 Δ19del/T790M/C797S IC50
Chain of Ba/F3-Δ19del/T790M/C797S (P00533 with tags, fused parts or gaps DEL746-750/T790M/C797S, form open): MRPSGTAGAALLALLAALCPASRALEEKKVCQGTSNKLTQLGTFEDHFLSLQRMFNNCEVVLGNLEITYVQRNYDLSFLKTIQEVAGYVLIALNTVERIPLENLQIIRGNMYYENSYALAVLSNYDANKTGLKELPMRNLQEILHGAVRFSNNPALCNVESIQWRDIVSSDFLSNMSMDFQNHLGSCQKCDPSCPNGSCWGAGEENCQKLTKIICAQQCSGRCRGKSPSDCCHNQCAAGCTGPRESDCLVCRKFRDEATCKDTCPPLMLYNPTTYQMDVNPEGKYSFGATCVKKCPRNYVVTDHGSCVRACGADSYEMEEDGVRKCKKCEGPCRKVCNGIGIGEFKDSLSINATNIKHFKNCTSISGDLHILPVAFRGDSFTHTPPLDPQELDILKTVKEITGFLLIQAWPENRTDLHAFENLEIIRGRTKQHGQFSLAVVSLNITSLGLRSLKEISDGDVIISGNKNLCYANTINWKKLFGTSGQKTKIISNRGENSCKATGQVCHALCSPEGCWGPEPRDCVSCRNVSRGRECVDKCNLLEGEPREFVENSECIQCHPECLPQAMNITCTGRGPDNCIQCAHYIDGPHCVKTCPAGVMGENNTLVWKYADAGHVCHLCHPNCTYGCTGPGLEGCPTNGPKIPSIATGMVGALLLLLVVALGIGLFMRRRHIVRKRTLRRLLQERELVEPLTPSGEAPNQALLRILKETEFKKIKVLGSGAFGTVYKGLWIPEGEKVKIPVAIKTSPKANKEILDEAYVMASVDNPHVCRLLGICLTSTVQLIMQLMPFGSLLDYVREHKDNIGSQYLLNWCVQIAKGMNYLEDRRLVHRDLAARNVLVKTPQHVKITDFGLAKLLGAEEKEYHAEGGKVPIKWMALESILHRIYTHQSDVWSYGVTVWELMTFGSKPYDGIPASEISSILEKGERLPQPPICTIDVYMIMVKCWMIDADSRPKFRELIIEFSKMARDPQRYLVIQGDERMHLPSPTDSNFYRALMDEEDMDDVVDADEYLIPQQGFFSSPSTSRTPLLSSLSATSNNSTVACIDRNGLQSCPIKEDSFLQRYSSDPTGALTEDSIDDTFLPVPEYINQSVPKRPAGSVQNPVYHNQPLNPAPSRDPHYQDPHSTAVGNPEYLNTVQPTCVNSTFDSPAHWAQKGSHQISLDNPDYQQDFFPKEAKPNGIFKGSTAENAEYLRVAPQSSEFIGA
Method in brief: (§12)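 Cells seeded at 2000/well and exposed 72 h to compound at 1000 to 0.2 nM (0.1% DMSO). Viability read by CellTiter-Glo luminescence; IC50 from four-parameter nonlinear regression of signal vs. log concentration.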

[3] = Liver microsomal clearance test, monkey; type: in vitro ADME; settings: Monkey liver microsomes, 0.5 mg/mL, NADPH
Experimental: as §1, §2, §3, §4, §5, §6, §7, §8, §9, §10, §11
1. […]

[4] = Liver microsomal clearance test, dog; type: in vitro ADME; settings: Dog liver microsomes, 0.5 mg/mL, NADPH
Experimental: as §1, §2, §3, §4, §5, §6, §7, §8, §9, §10, §11
1. […]

[5] = Liver microsomal clearance test, rat; type: in vitro ADME; settings: Rat liver microsomes, 0.5 mg/mL, NADPH
Experimental: as §1, §2, §3, §4, §5, §6, §7, §8, §9, §10, §11
1. […]

Ba/F3-L858R/T790M/C797S = Ba/F3-L858R/T790M/C797S (Homo sapiens, UniProt P00533, T790M/C797S/L858R, cells depend on it); experiment: Ba/F3-L858R/T790M/C797S cell proliferation assay (CellTiter Glo, 72 h); type: cell-based; settings: CTG, numeric values, read-out: BaF3 L858R/T790M/C797S IC50
Chain of Ba/F3-L858R/T790M/C797S (P00533 whole entry T790M/C797S/L858R): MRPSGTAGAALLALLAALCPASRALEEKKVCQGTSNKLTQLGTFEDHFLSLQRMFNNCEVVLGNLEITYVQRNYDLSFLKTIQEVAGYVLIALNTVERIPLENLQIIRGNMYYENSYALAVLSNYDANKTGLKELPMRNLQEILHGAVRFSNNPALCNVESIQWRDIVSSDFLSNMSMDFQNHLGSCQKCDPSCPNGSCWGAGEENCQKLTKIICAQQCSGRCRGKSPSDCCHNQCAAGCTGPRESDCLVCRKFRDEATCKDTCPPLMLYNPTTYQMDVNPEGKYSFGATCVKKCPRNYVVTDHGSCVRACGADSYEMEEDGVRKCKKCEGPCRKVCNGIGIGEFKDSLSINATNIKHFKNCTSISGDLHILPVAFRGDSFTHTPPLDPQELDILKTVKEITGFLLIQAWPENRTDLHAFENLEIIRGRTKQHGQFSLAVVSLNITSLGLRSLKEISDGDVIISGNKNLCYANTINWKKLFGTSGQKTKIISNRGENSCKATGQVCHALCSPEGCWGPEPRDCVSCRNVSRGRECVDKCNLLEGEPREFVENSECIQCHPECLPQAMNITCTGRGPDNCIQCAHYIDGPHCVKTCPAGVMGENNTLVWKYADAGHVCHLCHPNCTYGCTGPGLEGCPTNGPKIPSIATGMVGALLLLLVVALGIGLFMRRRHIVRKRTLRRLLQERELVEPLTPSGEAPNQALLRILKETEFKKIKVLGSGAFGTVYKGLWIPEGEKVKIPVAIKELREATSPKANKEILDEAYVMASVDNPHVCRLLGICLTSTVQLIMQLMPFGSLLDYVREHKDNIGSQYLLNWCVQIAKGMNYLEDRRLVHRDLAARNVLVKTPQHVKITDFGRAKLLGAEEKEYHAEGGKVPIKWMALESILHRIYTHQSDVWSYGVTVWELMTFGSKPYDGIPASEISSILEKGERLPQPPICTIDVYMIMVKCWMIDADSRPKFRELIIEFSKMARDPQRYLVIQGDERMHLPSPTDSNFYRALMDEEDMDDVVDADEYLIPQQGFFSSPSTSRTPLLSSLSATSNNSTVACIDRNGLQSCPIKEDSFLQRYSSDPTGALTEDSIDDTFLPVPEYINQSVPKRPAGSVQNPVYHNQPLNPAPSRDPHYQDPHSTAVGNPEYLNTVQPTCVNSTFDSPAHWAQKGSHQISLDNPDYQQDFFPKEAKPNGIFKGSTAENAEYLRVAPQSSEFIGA
Method in brief: as §12

[6] = system: A431 EGFR wild-type cell line; experiment: A431 EGFR wild-type cell proliferation assay (CellTiter Glo, 72 h); type: cell-based; settings: Homo sapiens, A-431, CTG, read-out: A431 EGFR WT IC50
Experimental: Cell line: Ba/F3 cells with stable overexpression of Δ19del/T790M/C797S or L858R/T790M/C797S mutant genes, named Ba/F3-Δ19del/T790M/C797S and Ba/F3-L858R/T790M/C797S, and A431 EGFR wild-type cell line.
RPMI 1640 and 10% FBS and 1% PS; _EM, 10% PBS and 1% PS
a) Dilute the test compound (20 mM stock solution) to 10 mM with 100% DMSO as the starting concentration, and then serially dilute 3 times with a “9+0” concentration in 96-well dilution plate (Cat #P-05525, Labcyte);
b) Dilute compound solution thereof to 1:100 in medium to prepare 10-fold working solution;
a) Centrifuge the growth cells in logarithmic phase at 1000 rpm for 5 minutes, resuspend the cells in culture medium, and then count the cells;
b) Inoculate the cells into a 96-well cell culture plate with a density of 2000 cells/well;
a) The compound prepared in Step 2 was added to a cell plate with 15 μL per well at final concentrations of 1000, 333, 111.1, 37, 12.3, 4.1, 1.4, 0.5, 0.2, and 0 nM. The final concentration of DMSO was 0.1%. The blank control well is with medium (0.1% DMSO).
b) Incubate cells in an incubatorother 72 hours;
a) Take out the 96-well cell culture plate and add 50 μl CTG reagent (CellTiter Glo kit, promega, Cat #G7573);
b) Shake the plate for 2 minutes and let cool at room temperature for 10 minutes,
c) Read luminous signal value with Perkin Elmer reader.
as §11
The data were analyzed by GraphPad Prism 6.0 software to obtain the fitting curve of compound activity.
Fining compound IC50 from nonlinear regression equation:
Y=Min+(Max−Min)/(1+10^((LogIC50−X)*slope));
X: Logarithm of compound concentration; Y: luminous signal
As illustrated in examples, IC50 value is within the following range for the compound of the present invention: “A” represents “IC50≤50 nM”; “B” represents “50 nM<IC50<100 nM”.

EGFR Δ19del/T790M/C797S = EGFR Δ19del/T790M/C797S (Homo sapiens, UniProt P00533, T790M/C797S, form not given); experiment: EGFR Δ19del/T790M/C797S kinase test (mobility shift, Caliper EZ Reader); type: biochemical; settings: kinase enzymatic activity, class symbols
Chain of EGFR Δ19del/T790M/C797S (P00533 with tags, fused parts or gaps DEL746-750/T790M/C797S, form open): as the sequence (P00533 with tags, fused parts or gaps DEL746-750/T790M/C797S, form open) above
Method in brief: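 Mobility-shift assay in which kinase was preincubated 10 min at room temperature with a 10-point, 3-fold compound series starting at 3000 nM or 100 nM. ATP plus substrate then started the reaction at room temperature, and conversion was read on Caliper EZ Reader. IC50 came from a variable-slope fit of % inhibition against positive and negative controls.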

## COc1cc(N2CCC(N3CCN(C)CC3)CC2)c(C)cc1Nc1ncc(Br)c(Nc2ccc3nccnc3c2P(C)(C)=O)n1 [A, reference compound]
[1]
  Instrinsic clearance of liver microsomal protein, CLint: 16.4 μL/min/mg proteins
[2]
  Instrinsic clearance of liver microsomal protein, CLint: 17.4 μL/min/mg proteins
hERG protein
  IC50: 13.5 µM
Ba/F3-Δ19del/T790M/C797S
  GI50: 0.022 µM
[3]
  Instrinsic clearance of liver microsomal protein, CLint: 65.4 μL/min/mg proteins
[4]
  Instrinsic clearance of liver microsomal protein, CLint: 15.6 μL/min/mg proteins
[5]
  Instrinsic clearance of liver microsomal protein, CLint: 22 μL/min/mg proteins
Ba/F3-L858R/T790M/C797S
  GI50: 0.0167 µM
[6]
  IC50: 0.375 µM

## COc1cc(N2CCC(N3CCCCC3)CC2)c(-c2cnn(C)c2)cc1Nc1ncc(Cl)c(Nc2ccc3nccnc3c2P(C)(C)=O)n1 [Compound 5, (6-((2-((4-([1,4′-Dipiperidine]-1′-yl)-2-methoxy-5-(1-methyl-1H-pyrazole-4-yl)phenyl)amino)-5-chloropyrimidin-4-yl)amino)quinoxalin-5-yl)dimethylphosphine oxide]
[1]
  Instrinsic clearance of liver microsomal protein, CLint: 11.2 μL/min/mg proteins
[2]
  Instrinsic clearance of liver microsomal protein, CLint: 15.4 μL/min/mg proteins
Ba/F3-Δ19del/T790M/C797S
  GI50: 0.003 µM
[3]
  Instrinsic clearance of liver microsomal protein, CLint: 43.2 μL/min/mg proteins
[4]
  Instrinsic clearance of liver microsomal protein, CLint: 25.8 μL/min/mg proteins
[5]
  Instrinsic clearance of liver microsomal protein, CLint: 0.8 μL/min/mg proteins
Ba/F3-L858R/T790M/C797S
  GI50: 0.0065 µM
[6]
  IC50: 0.114 µM
EGFR Δ19del/T790M/C797S
  IC50: ≤ 0.001 µM
